Data on 30 molecules can be found in US5840895A, “Triazole intermediates for tricyclic benzazepine and benzothiazepine derivatives” (Meiji Seika Kabushiki Kaisha, priority 1993, dated 1998).

Assay [1] has as its system histamine releasing reaction. Put plainly: Test of suppressing histamine releasing reaction (abdominal cavity cells of rats sensitised with anti-DNP-As serum, stimulated with DNP-As). In kind it is cell-based, rat (male Wister). The settings on record: Rattus norvegicus; cells 10^5 cell/ml stimulated with 1 μg/ml DNP-As; test compounds 10^-5 -10^-10 M; read-out: IC50 (suppression of histamine releasing reaction). How it is done: Test of suppressing histamine releasing reaction
Rat anti-dinitrophenylated ascaris protein (referred to hereinafter as DNP-As) serum was prepared according to the method described by Tada, T. and Okumura, K., J. Immun., 106 (4), 1971. Briefly, 1×10^10 of inviable pertussis and 1 mg of DNP-As were administered subcutaneously to the paw of female Brown Norway rats having a body weight of 200 g. After five days, 0.5 mg of DNP-As was further administered intramuscularly to the rear of the animals. Blood samples were taken after three days of the administration to prepare anti-serum.
A 1 ml portion of the serum diluted four times with physiological saline was administered intraperitoneally to male Wister rats. After two days, abdominal cavity was rinsed with phosphate buffer to recover the cells within the abdominal cavity. After the cell concentration was adjusted to 10^5 cell/ml, the cells were stimulated with 1 μg/ml of DNP-As. The amount of histamine released into the supernatant was measured according to the method described by Shore, P. A., Burkhalter, A. H. and Chon, V. H. Jr., J. Pharm. Exp. Ther., 127, 182-186 (1959).
A dose for suppressing 50% of the histamine releasing reaction, i.e., IC50 value, was calculated from the amounts of histamine released in the group treated with the test compounds in the molar concentrations (M) of 10^-5 -10^-10 and in the control group. The IC50 value as the suppressing effect of the drugs is shown in Table 6 with the IC50 value of sodium chromoglycic acid selected as the control compound.

Assay [2] concerns allergic edema reaction at paw. The assay can be described thus: Test for suppressing immediate and delayed allergic reaction (allergic edema reaction at paw, DNP-OA). The settings on record: Rattus norvegicus, oral; for inhibition in vivo at 30 mg/kg: dose: 30 mg/kg of body weight. The assay is classed as in vivo, rat (male Wister). How it is done:
Test for suppressing immediate and delayed allergic reaction
1×10^10 of inviable pertussis and 1 mg of dinitrophenylated ovalbumin (DNP-OA) were administered subcutaneously to the three paws except the right hind paw of male Wister rats having a body weight of 200 g. After 10 days, 5 μg of DNP-OA was further administered subcutaneously to the right hind paw of the animals to induce the allergic edema reaction at paw. The allergy suppressing effect of the test compounds was examined with reference to the edema volumes after 30 minutes and 8 hours of the induction of the allergic reaction as the immediate and delayed allergic reactions, respectively.
[…] On the other hand, only a solution of 0.25% Tween 80 was orally administered to rats as the untreated control, and 100 mg/kg of sodium chromoglycate subcutaneously or orally to rats as the positive control.
The rate of suppressing the allergic edema reaction at paw was calculated from the following equation.
Suppression rate of the allergic edema reaction at paw
A is an average edema volume in the control, and
B is an average edema volume in the drug treated group.

The mark [3] stands for this setting: 0.5 h, 30 minutes after induction, read-out: Suppressing Rate, Immediate Reaction.
Setting [4] is: 8 hours after induction, read-out: Suppressing Rate, Slow reaction.
The mark [5] stands for this setting: 0.5 h, edema volume 30 minutes after induction, read-out: Suppressing Rate, Immediate Reaction.
Setting [6] is: edema volume 8 hours after induction, read-out: Suppressing Rate, Slow reaction.

Read-outs that look alike come from different tables or passages of the source.

Broadly, the IC50 is the concentration that gives 50% inhibition. For `N#CC=Cc1ccc2c(=O)c3[nH]nnc3c(=O)[nH]c2c1` (mixture of isomers) [Example 19, 3:1 mixture of 7-(2-cyano-(E)-ethenyl)-4(5H),10-dioxo-1H-1,2,3-triazolo[4,5-c][l]benzazepine and 7-(2-cyano-(Z)-ethenyl)-4(5H),10-dioxo-1H-1,2,3-triazolo[4,5-c][l]benzazepine], in assay [1], the IC50 was found to be 4.3 nM.
`O=c1[nH]c2ccccc2c(=O)c2[nH]nnc12` [Example 1, 4(5H),10-dioxo-1H-1,2,3-triazolo[4,5-c][l]benzazepine]: the half-inhibitory concentration (IC50) in assay [1] came to 12 nM. Further, the inhibition in vivo at 30 mg/kg is 56.4% in assay [2] (setting [3]) and 24.5% in assay [2] (setting [4]).
In the same order, the values of `Cc1cccc2c(=O)c3[nH]nnc3c(=O)[nH]c12` [Example 3, 6-methyl-4(5H),10-dioxo-1H-1,2,3-triazolo[4,5-c][l]benzazepine] are 37 nM, 46.6% and 24.2%.
In the same order, the values of `Cc1ccc2c(=O)c3[nH]nnc3c(=O)[nH]c2c1` [Example 4, 7-methyl-4(5H),10-dioxo-1H-1,2,3-triazolo[4,5-c][l]benzazepine] are 2.3 nM, 70.5% and 57.7%.
Consider `Cc1ccc2[nH]c(=O)c3nn[nH]c3c(=O)c2c1` [Example 5, 8-methyl-4(5H),10-dioxo-1H-1,2,3-triazolo[4,5-c][l]benzazepine], for which the IC50 in assay [1] worked out at 13 nM. Further, the inhibition in vivo at 30 mg/kg amounted to 48.7% in assay [2] (setting [3]) and 28.9% in assay [2] (setting [4]).
With `CCc1ccc2c(=O)c3[nH]nnc3c(=O)[nH]c2c1` [Example 12, 7-ethyl-4(5H),10-dioxo-1H-1,2,3-triazolo[4,5-c][l]benzazepine], the IC50 in assay [1] stood at 6.2 nM. Moreover, the inhibition in vivo at 10 mg/kg in assay [2] (setting [5]) worked out at 59%; in assay [2] (setting [6]), 53%.
Turning to `COC(=O)CCc1ccc2c(=O)c3[nH]nnc3c(=O)[nH]c2c1` [Example 17, 7-(2-methoxycarbonylethyl)-4(5H),10-dioxo-1H-1,2,3-triazolo[4,5-c][l]benzazepine], the IC50 in assay [1] was 4.1 nM.
As for `O=C(O)/C=C/c1ccc2c(=O)c3[nH]nnc3c(=O)[nH]c2c1` [Example 18], in assay [1], the IC50 amounted to 4.5 nM.
Still for that read-out and setting: the result for `CC(=O)COc1ccc2c(=O)c3[nH]nnc3c(=O)[nH]c2c1` [Example 34, 7-acetonyloxy-4(5H),10-dioxo-1H-1,2,3-triazolo[4,5-c][l]benzazepine] reads 3.5 nM; that for `COc1ccc(C(=O)COc2ccc3c(=O)c4[nH]nnc4c(=O)[nH]c3c2)cc1` [Example 37, 7-(4-methoxyphenacyloxy)-4(5H),10-dioxo-1H-1,2,3-triazolo[4,5-c][l]benzazepine], 7.5 nM; that for `Cc1cc2[nH]c(=O)c3nn[nH]c3c(=O)c2cc1C` [Example 44, 7,8-dimethyl-4(5H),10-dioxo-1H-1,2,3-triazolo[4,5-c][l]benzazepine], 8.5 nM.
Turning to `COc1cc2c(=O)c3[nH]nnc3c(=O)[nH]c2cc1C` [Example 45, 8-methoxy-7-methyl-4(5H),10-dioxo-1H-1,2,3-triazolo[4,5-c][l]benzazepine], the IC50 in assay [1] was found to be 2.9 nM.
Consider `Cc1ccc2c(=O)c3[nH]nnc3c(=O)[nH]c2c1` [Example 46, 7-methyl-4(5H),10-dioxo-1H-1,2,3-triazolo[4,5-c][l]benzazepine], for which the inhibition in vivo at 10 mg/kg in assay [2] (setting [5]) turned out to be 64%; in assay [2] (setting [6]) it was 68%.
Turning to `COC(=O)/C(C)=C/c1ccc2c(=O)c3[nH]nnc3c(=O)[nH]c2c1` [Example 50], in assay [1], the IC50 is 3.6 nM.
Same read-out and setting: the result for `COc1ccc(C(=O)/C=C/c2ccc3c(=O)c4[nH]nnc4c(=O)[nH]c3c2)cc1` [Example 51, 7-(2-(4-methoxybenzoyl)-(E)-ethenyl)-4(5H1), 10-dioxo-1H-1,2,3-triazolo[4,5-c][l]benzazepine] reads 7.8 nM.
As to `O=C(/C=C/c1ccc2c(=O)c3[nH]nnc3c(=O)[nH]c2c1)NCc1ccccc1` [Example 53, 7-(2-(N-benzylcarbamoyl)-(E)-ethenyl)-4(5H),10-dioxo-1H-1,2,3-triazolo[4,5-c][l]benzazepine], the IC50 in assay [1] came out at 4.4 nM.
For the molecule `O=C(/C=C/c1ccc2c(=O)c3[nH]nnc3c(=O)[nH]c2c1)NCc1ccccn1` [Example 54, 4(5H),10-dioxo-7-(2-(N-(2-pyridylmethyl)carbamoyl)-(E)-ethenyl)-1H-1,2,3-triazolo[4,5-c][l]benzazepine], the IC50 in assay [1] came out at 3.6 nM.
Still for that read-out and setting: the figure for `O=C(/C=C/c1ccc2c(=O)c3[nH]nnc3c(=O)[nH]c2c1)Nc1nn[nH]n1` [Example 56, 4(5H),10-dioxo-7-(2-(N-(1H-tetrazol-5-yl)carbamoyl)-(E)-ethenyl)-1H-1,2,3-triazolo[4,5-c][l]benzazepine] is 4.7 nM; for `O=c1[nH]c2cc(C=NO)ccc2c(=O)c2[nH]nnc12` [Example 57, 7-(hydroxyimino)methyl-4(5H),10-dioxo-1H-1,2,3-triazolo[4,5-c][l]benzazepine] it is 2.4 nM.
On to `CON=Cc1ccc2c(=O)c3[nH]nnc3c(=O)[nH]c2c1` [Example 58, 7-(methoxyimino)methyl-4(5H),10-dioxo-1H-1,2,3-triazolo[4,5-c][l]benzazepine], for which, in assay [1], the IC50 came to 8.1 nM.
Same read-out and setting: the figure for `CS(=O)(=O)NCc1ccc2c(=O)c3[nH]nnc3c(=O)[nH]c2c1` [Example 68, 7-(N-methanesulfonylaminomethyl)-4(5H),10-dioxo-1H-1,2,3-triazolo[4,5-c][l]benzazepine] is 3.5 nM.
In the case of `O=c1[nH]c2cc(CNS(=O)(=O)c3ccc(F)cc3)ccc2c(=O)c2[nH]nnc12` [Example 70, 7-(N-(4-fluorobenzenesulfonyl)aminomethyl)-4(5H),10-dioxo-1H-1,2,3-triazolo[4,5-c][l]benzazepine], in assay [1], the IC50 was 6.1 nM.
The same measure, in the same setting: the result for `COc1ccccc1C(=O)COc1ccc2c(=O)c3[nH]nnc3c(=O)[nH]c2c1` [Example 73, 7-(2-methoxyphenacyloxy)-4(5H),10-dioxo-1H-1,2,3-triazolo[4,5-c][l]benzazepine] reads 4.8 nM; that for `O=C(COc1ccc2c(=O)c3[nH]nnc3c(=O)[nH]c2c1)c1ccc(Cl)cc1` [Example 74, 7-(4-chlorophenacyloxy)-4(5H),10-dioxo-1H-1,2,3-triazolo[4,5-c][l]benzazepine], 4.5 nM; that for `O=c1[nH]c2cc(OCCCOc3ccccc3)ccc2c(=O)c2[nH]nnc12` [Example 75, 4(5H),10-dioxo-7-(3-phenoxypropoxy)-IH-1,2,3-triazolo[4,5-c][l]benzazepine], 4 nM.
Same read-out and setting: the result for `O=c1[nH]c2cc(OCCOc3ccccc3)ccc2c(=O)c2[nH]nnc12` [Example 78, 4(5H),10-dioxo-7-(2-phenoxyethoxy)-1H-1,2,3-triazolo[4,5-c][l]benzazepine] reads 3.6 nM; that for `O=C(CCc1ccccc1)COc1ccc2c(=O)c3[nH]nnc3c(=O)[nH]c2c1` [Example 79, 4(5H),10-dioxo-7-(2-oxo-4-phenylbutoxy)-1H-1,2,3-triazolo[4,5-c][l]benzazepine], 3.6 nM.
On to `O=c1[nH]c2cc(OCC(O)CCc3ccccc3)ccc2c(=O)c2[nH]nnc12` (centres unmarked) [Example 80, 7-(2-hydroxy-4-phenylbutoxy)-4(5H),10-dioxo-1H-1,2,3-triazolo[4,5-c][l]benzazepine], for which the 50% inhibitory concentration (IC50) in assay [1] worked out at 4.7 nM.
On the same count and under the same terms, the result for `O=c1[nH]c2cc(OCCCN3CCN(Cc4ccccc4)CC3)ccc2c(=O)c2[nH]nnc12` [Example 81, 7-(3-(4-benzyl-1-piperazinyl)propoxy)-4(5H),10-dioxo-1H-1,2,3-triazolo[4,5-c][l]benzazepine] reads 3.8 nM; that for `COc1ccccc1C(=O)COc1ccc2[nH]c(=O)c3nn[nH]c3c(=O)c2c1` [Example 87, 8-(2-methoxyphenacyloxy)-4(5H),10-dioxo-1H-1,2,3-triazolo[4,5-c][l]benzazepine], 7.4 nM.
